Assay results as given in PMC4236894, “Salicylanilide Diethyl Phosphates as Potential Inhibitors of Some Mycobacterial Enzymes” (The Scientific World Journal, 2014).
Read-outs that look alike come from different tables or passages of the source.

What was measured:
[1] = molecular target: T1, L-alanine dehydrogenase (MtAlaDH) (Mycobacterium tuberculosis, UniProt P9WQB1); test: biochemical
T1 sequence (P9WQB1 1-371): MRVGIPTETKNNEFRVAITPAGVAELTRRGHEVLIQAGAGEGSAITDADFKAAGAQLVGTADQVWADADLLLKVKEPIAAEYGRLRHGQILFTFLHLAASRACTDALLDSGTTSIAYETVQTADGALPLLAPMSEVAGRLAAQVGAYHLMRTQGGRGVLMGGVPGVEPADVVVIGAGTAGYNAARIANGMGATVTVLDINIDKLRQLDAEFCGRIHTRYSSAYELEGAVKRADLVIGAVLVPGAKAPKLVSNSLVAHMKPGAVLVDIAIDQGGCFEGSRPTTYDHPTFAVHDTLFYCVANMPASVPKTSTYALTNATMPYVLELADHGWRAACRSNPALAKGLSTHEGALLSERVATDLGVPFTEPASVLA

[2] = molecular target: T2, Lysine ε-aminotransferase (MtLAT) (Mycobacterium tuberculosis, UniProt P9WQ77); test: biochemical
T2 sequence (P9WQ77 1-449): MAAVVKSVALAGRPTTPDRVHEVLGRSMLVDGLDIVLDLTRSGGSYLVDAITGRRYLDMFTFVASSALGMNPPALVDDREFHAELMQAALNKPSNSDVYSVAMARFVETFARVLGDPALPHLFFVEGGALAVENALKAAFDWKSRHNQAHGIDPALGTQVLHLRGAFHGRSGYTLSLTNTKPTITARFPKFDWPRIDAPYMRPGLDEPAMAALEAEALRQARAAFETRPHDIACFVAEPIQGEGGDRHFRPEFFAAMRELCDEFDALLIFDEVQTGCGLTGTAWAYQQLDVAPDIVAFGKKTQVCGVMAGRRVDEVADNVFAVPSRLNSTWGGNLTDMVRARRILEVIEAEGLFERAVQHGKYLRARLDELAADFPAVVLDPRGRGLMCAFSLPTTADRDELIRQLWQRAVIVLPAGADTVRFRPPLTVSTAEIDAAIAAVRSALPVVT

Chorismate mutase (MtCM) = molecular target: T3, Chorismate mutase (MtCM) (Mycobacterium tuberculosis, UniProt P9WIB9); test: biochemical
T3 sequence (P9WIB9 34-199): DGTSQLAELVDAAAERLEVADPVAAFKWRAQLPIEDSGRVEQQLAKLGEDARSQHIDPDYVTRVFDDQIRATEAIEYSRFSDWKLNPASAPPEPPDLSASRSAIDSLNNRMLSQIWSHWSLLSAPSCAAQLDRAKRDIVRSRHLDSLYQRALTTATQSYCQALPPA
Experimental: Reaction volumes of 0.4 mL of chorismate (typically 1 mM) in 50 mM Tris HCl (pH 7.5), 0.5 mM EDTA, 0.1 mg/mL bovine serum albumin, and 10 mM β-mercaptoethanol were incubated at 37°C for 5 min. […] The reaction was allowed to proceed at 37°C and was terminated after 1 to 5 min with 0.4 mL 1 M HCl. After a further incubation at 37°C for 10 min to convert prephenate, which is formed in the enzymatic reaction, to phenylpyruvate, 0.8 mL 2.5 M NaOH was added. The absorbance of the phenylpyruvate chromophore was read at 320 nm. We set up a blank with no enzyme for every reaction to account for the nonenzymatic conversion of chorismate to prephenate and added the enzyme after the addition of NaOH. […] A description of the methods can be found in the literature.

[3] = molecular target: Pantothenate synthetase (MtPS) (Mycobacterium tuberculosis, UniProt P9WIL5); test: Mycobacterial pantothenate synthetase (MtPS) screening; format: biochemical; details: 50 μM compound
Sequence of Pantothenate synthetase (MtPS) (P9WIL5 whole entry, looked up): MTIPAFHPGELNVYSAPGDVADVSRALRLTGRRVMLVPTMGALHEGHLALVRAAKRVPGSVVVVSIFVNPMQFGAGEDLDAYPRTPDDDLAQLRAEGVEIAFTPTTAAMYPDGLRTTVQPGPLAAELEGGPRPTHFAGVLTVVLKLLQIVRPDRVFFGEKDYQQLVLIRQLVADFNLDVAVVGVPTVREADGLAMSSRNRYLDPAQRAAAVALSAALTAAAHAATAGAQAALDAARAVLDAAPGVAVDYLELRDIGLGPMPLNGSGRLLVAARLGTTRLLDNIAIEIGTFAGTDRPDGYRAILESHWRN
Experimental: Sixty microliters of the PS reagent mix was added, including NADH, pantoic acid, β-alanine, ATP, phosphoenolpyruvate, MgCl2, myokinase, pyruvate kinase, and lactate dehydrogenase in buffer, to each well of a 96-well plate. The compounds were then added to plates in 1 μL volumes. The reaction was initiated by the addition of 39 μL PS diluted in buffer. The final concentrations in the reaction were 0.4 mM NADH, 5 mM pantoic acid, 10 mM MgCl2, 5 mM β-alanine, 10 mM ATP, 1 mM potassium phosphoenolpyruvate, and 18 units/mL each of chicken muscle myokinase, rabbit muscle pyruvate kinase, and rabbit muscle lactate dehydrogenase diluted in 100 mM HEPES buffer (pH 7.8), 1% DMSO, and 5 μg/mL PS in a final volume of 100 μL. The test plate was immediately transferred to a microplate reader, and absorbance was measured at 340 nm every 12 sec for 120 sec. […] The per cent inhibition was calculated using the following formula: 100 ∗ 1 − compound rate − background rate/full reaction rate − background rate.

Mtb H37Rv strain = details: cited from earlier work
[4] = molecular target: mycobacterial isocitrate lyase (ICL) (Mycobacterium tuberculosis, UniProt P9WKK7); test: Isocitrate lyase assay (ICL1), glyoxylate phenyl hydrazone formation; format: biochemical; details: read-out: % ICL inhibition at 10 μM (±standard deviation)
Sequence of mycobacterial isocitrate lyase (ICL) (P9WKK7 whole entry): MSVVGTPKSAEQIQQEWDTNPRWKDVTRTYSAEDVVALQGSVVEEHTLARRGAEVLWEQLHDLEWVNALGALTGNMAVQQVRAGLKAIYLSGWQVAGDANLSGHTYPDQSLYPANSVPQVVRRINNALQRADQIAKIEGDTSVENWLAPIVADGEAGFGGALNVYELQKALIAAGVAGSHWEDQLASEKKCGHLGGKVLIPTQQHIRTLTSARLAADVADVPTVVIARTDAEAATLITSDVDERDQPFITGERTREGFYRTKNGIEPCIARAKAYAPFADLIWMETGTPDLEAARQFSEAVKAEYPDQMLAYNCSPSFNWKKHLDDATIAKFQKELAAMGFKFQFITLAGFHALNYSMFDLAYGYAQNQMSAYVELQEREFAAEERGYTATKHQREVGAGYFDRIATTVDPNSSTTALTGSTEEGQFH
Experimental: Isocitrate lyase activity was assayed according to the protocol reported by Dixon and Kornberg (glyoxylate phenyl hydrazone formation) at 10 µM of the investigated compounds. […] A description of the method can be found in the literature.

Row | SMILES | IC50 [1] [µM] | inhibition at 10 µM ([4]; 10 μM compound) [%] | % inhibition at 50 μM against L-MtAlaDH [1] [%] | % inhibition at 50 μM against MtLAT [2] [%] | % inhibition at 50 μM against MtCM (Chorismate mutase (MtCM)) [%] | further results
1 | CCOP(=O)(OCC)Oc1cc(Cl)ccc1C(=O)Nc1cccc(Cl)c1 [1s, 5-Chloro-2-[(3-chlorophenyl)carbamoyl]phenyl diethyl phosphate] | 4.96 | – | – | – | – | inhibition at 50 µM ([1]; read-out: % inhibition at 50 μM against L-MtAlaDH, 50 μM compound): > 70%; inhibition at 50 µM ([2]; read-out: % inhibition at 50 μM against MtLAT, 50 μM compound): > 50%; inhibition at 50 µM (Chorismate mutase (MtCM); read-out: % inhibition at 50 μM against MtCM, 50 μM compound): > 60%; inhibition at 50 µM ([3]; read-out: % inhibition at 50 μM against MtPS): 11.2%; MICs against actively growing Mtb H37Rv strain (Mtb H37Rv strain): 4 to 8 µM; inhibition at 10 µM [4]: 6 ± 0.83%
2 | NNC(=O)c1ccncc1 [Isoniazid] | – | 0 | – | – | – | –
3 | CCOP(=O)(OCC)Oc1cc(Cl)ccc1C(=O)Nc1cccc(Cl)c1 [1j] | > 50 | – | 12.30 | 29.30 | 54.56 | % inhibition at 50 μM against MtPS [3]: 3.64%
4 | O=C(O)CC[N+](=O)[O-] [3-Nitropropionic acid, 3-nitropropionic acid] | – | 25 ± 4.1 | – | – | – | –
5 | CCOP(=O)(OCC)Oc1cc(Cl)ccc1C(=O)Nc1ccc(C(F)(F)F)cc1 [1r] | > 50 | – | 47.28 | 23.18 | 50.05 | –
